Here are results for two molecules from US20040082635A1, “Fused cyclic compounds and medicinal use thereof” (priority 2001, published 2004).

One series relates to HCV type 1a. The series can be described thus: inhibitory activity on HCV type 1a (statement only, no method). Particulars: in words.
The test system of a further series is HCV type 1b. The series can be described thus: inhibitory activity on HCV type 1b (statement only, no method). The note with it: in words.
The nature of series [1]: blood concentration when administered to an animal (statement only, no method). The note with it: when administered as a pharmaceutical agent to an animal; in words. It counts as in vivo.
Another series concerns the target T1, HCV polymerase (Hepatitis C virus genotype 1b, UniProt P26663).
T1 construct: a region encoding NS5B (591 amino acids; J Virol 1991 Mar, 65(3), 1105-13) was amplified by PCR; 6 His (N); made in house; host or cells: Escherichia coli
The series can be described thus: biochemical. Particulars: read-out: HCV polymerase inhibitory activity IC50.

A word on the IC50: it is the midpoint of a concentration-inhibition curve. For orientation: melting point means the temperature, or range, at which the solid turns liquid.

The structures appear in SMILES notation.

T1 sequence (P26663 2420-3010): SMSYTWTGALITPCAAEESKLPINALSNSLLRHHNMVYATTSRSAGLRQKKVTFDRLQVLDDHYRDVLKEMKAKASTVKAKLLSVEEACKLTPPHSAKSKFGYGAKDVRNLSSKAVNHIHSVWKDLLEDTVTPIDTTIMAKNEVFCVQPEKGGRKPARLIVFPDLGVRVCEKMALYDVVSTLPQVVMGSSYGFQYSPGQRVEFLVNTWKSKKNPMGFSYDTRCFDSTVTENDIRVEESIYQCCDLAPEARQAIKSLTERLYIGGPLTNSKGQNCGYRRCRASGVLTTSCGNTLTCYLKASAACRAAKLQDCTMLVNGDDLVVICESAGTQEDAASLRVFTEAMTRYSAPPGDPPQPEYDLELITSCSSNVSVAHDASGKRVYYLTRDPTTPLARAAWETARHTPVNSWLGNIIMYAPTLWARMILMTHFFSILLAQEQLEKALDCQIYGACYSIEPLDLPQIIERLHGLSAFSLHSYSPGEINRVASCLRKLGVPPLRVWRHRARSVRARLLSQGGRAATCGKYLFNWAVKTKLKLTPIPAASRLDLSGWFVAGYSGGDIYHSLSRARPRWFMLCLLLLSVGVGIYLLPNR

For `Cl.O=C(O)c1ccc2c(c1)nc(-c1ccc(OCc3cc(N4CCCC4=O)ccc3-c3ccc(Cl)cc3)cc1F)n2C1CCCCC1` [2-{4-[2-(4-chlorophenyl)-5-(2-oxopyrrolidin-1-yl)benzyloxy]-2-fluorophenyl}-1-cyclohexylbenzimidazole-5-carboxylic acid hydrochloride], in the series with HCV type 1a, the “inhibitory activity on HCV type 1a” value was “high inhibitory activity”. Moreover, the “inhibitory activity on HCV type 1b” value with HCV type 1b is “high inhibitory activity”. Also, the blood concentration result in series [1] was “high blood concentration”.

Molecule `O=C(O)c1ccc2c(c1)nc(-c1ccc(Oc3cccc(OCc4ccncc4)c3)cc1)n2C1CCCCC1` [Example 30, 1-cyclohexyl-2-{4-[3-(4-pyridylmethoxy)phenyloxy]-phenyl}benzimidazole-5-carboxylic acid] came in with a melting point of 235 to 237 °C. In addition, at HCV polymerase, the 50% inhibitory concentration (IC50) came to 52 nM.
